Patent US9969775B2, “CGRP antagonist peptides” (Ferring B.V., priority 2015, dated 2018)
pIC50: −log10 of the molar value. Read-outs that look alike come from different tables or passages of the source. Numbered stars: 1 amine (or outer) side, 2 acyl side, 3 side chain; on linkers, the order of the positions; unused ones are H or OH. Bridge positions count the residues as written; N and C are the ends. Square brackets hold non-standard residues; d marks the D form. Peptide text beside a SMILES is read from it. * marks the point of attachment. Phe(3-CONH2) = NC(=O)c1cccc(C[C@H](N)C(=O)O)c1; Phe(2-CONH2) = NC(=O)c1ccccc1C[C@H](N)C(=O)O; X13 = N#CN=C(N)NCC[C@H](N[*:1])C(=O)[*:2]; Phe(3-CN) = N#Cc1cccc(C[C@H](N)C(=O)O)c1; Triazol3yl(1,2,4-5-NH2) = Nc1nc(*)n[nH]1; Arg(Me) = CNC(=N)NCCC[C@H](N)C(=O)O; Lys(iPr) = CC(C)NCCCC[C@H](N)C(=O)O; Orn(iPr) = CC(C)NCCC[C@H](N)C(=O)O; Dab(iPr) = CC(C)NCC[C@H](N)C(=O)O; Benzoyl(4-F) = O=C(c1ccc(F)cc1)*; Oxazole2carbonyl = O=C(c1ncco1)*; 3Pal = N[C@@H](Cc1cccnc1)C(=O)O; Picolinoyl = O=C(c1ccccn1)*; ΔPro = O=C(O)[C@@H]1C=CCN1; Orn = NCCC[C@H](N)C(=O)O; Dap = NC[C@H](N)C(=O)O; X12 = Cc1cccnc1C(=O)*; Bz = O=C(c1ccccc1)*

Tests used:
[1] = biological target: T1, hCGRP receptor (CALCRL:RAMP1) (Homo sapiens, UniProt O60894+Q16602); test: CGRP receptor antagonist activity measured by cAMP assay (HTRF); format: cell-based; settings: for Emax: read-out: hCGRP-R Efficacy Antag (%) Ave; for pIC50: GeneBLAzer CALCRL:RAMP1-CRE-bla Freestyle 293F cells, 30 minutes
T1 construct: host or cells: GeneBLAzer CALCRL:RAMP1-CRE-bla Freestyle 293F
T1 sequence (Q16602 23-461): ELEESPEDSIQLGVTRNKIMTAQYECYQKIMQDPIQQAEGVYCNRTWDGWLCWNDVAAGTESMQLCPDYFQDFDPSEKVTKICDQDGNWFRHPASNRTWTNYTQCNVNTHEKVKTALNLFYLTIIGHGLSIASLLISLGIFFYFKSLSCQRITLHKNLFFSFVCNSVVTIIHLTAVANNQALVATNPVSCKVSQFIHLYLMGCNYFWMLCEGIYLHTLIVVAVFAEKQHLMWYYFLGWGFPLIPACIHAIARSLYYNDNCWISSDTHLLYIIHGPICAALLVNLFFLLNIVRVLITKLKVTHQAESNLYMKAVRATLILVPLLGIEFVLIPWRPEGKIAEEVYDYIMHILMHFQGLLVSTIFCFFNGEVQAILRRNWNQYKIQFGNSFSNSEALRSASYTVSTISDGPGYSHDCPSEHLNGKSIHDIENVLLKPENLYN
T1 sequence (O60894 27-148): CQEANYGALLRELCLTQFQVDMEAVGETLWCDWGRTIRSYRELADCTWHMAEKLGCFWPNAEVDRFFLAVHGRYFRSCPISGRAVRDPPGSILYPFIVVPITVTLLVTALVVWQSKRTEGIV
Experimental: Example 6: CGRP Receptor Antagonist Activity Measured by cAMP Assay
CGRP receptor agonists increase intracellular cyclic adenosine mono-phosphate (cAMP). CGRP receptor antagonists can reduce the agonist effect. Antagonist activity was assessed by measurement of cyclic adenosine mono-phosphate (cAMP) using cell line stably expressing the hCGRP receptor (GeneBLAzer® CALCRL:RAMP1-CRE-bla Freestyle™ 293F, Invitrogen). hCGRP receptor expressing cells were maintained in DMEM high-glucose with GlutaMAX™ containing 10% (v/v) FBS, 0.1 mM NEAA, 25 mM HEPES, 5 ug/ml Blasticidin, 100 ug/ml Hygromycin, and 400 ug/ml Geneticin at 37° C. under 5% CO2 in a humidified atmosphere. For cAMP measurement, cells were washed once with 5 ml 1×PBS, cell maintenance media was replaced with compound buffer ((CB): DMEM containing 0.1% BSA and 0.5 mM IBMX), and flasks were incubated for 1 hour at 37° C. under 5% CO2 in a humidified atmosphere. Cells were removed from culture flasks using non-enzymatic cell dissociation buffer and harvested in CB. The reaction was performed in 384 well white small volume plates (Greiner) at a density of 10,000 cells/well. Cells were exposed to varying concentrations of antagonist compounds for 30 minutes in the presence of a fixed concentration of agonist (human α-CGRP). cAMP levels were measured using an HTRF (homogeneous time resolved fluorescence)-based competitive cAMP immunoassay (cAMP Dynamic 2 Kit, Cisbio), according to the manufacturer's instructions. […] Reported parameters include antagonist potency IC50 (the concentration causing half-maximal inhibition of the agonist response for antagonist compounds) and efficacy (% MPE: percent of the maximal possible effect).

[2] = biological target: T2, hAM2 receptor (CALCRL:RAMP3) (Homo sapiens, UniProt O60896+Q16602); test: AM2 receptor antagonist activity measured by cAMP assay (HTRF); format: cell-based; settings: for Emax: read-out: hAM2-R Efficacy Antag (%) Ave; for pIC50: GeneBLAzer CALCRL:RAMP3-CRE-bla Freestyle 293F cells; for selectivity ratio CGRP/AM2: selectivity ratio for hCGRP over hAM2, calculated from the IC50 values
T2 construct: expressed in transfected cells; host or cells: GeneBLAzer CALCRL:RAMP3-CRE-bla Freestyle 293F
T2 sequence (Q16602 23-461): as the sequence (Q16602 23-461) above
T2 sequence (O60896 24-148): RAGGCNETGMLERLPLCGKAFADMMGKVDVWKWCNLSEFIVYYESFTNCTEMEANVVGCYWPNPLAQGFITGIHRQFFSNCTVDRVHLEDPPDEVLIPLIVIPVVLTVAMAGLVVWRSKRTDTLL
Experimental: Antagonist activity for the adrenomedullin receptor AM2 was determined using the method described in Example 6 above, with the following modifications. Instead of GeneBLAzer® CALCRL:RAMP1-CRE-bla Freestyle™ 293F cells, GeneBLAzer® CALCRL:RAMP3-CRE-bla Freestyle™ 293F cells were used to test activity at hAM2 receptors. The agonist was human adrenomedullin, instead of α-CGRP.
In Table 5, the selectivity ratio for hCGRP over hAM2 is calculated as hCGRP-R IC50/hAM2-R IC50.

[3] = % MPE: percent of the maximal possible effect, agonist human α-CGRP
[4] = agonist human α-CGRP, read-out: hCGRP-R IC50 Ave
[5] = % MPE: percent of the maximal possible effect, agonist human adrenomedullin
[6] = agonist human adrenomedullin, read-out: hAM2-R IC50 Ave

Structure (SMILES)	Emax [1, 3] [%]	pIC50 [1, 4]	Emax [2, 5] [%]	pIC50 [2, 6]	selectivity ratio CGRP/AM2 [2]	pIC50 ([1]; hCGRP-R IC50 Ave, agonist human α-CGRP)	Emax [1] [%]	pIC50 ([2]; hAM2-R IC50 Ave, agonist human adrenomedullin)	Emax [2] [%]
CC(C)NCCC[C@@H]1NC(=O)[C@@H](NC(=O)[C@H](Cc2ccccc2C(N)=O)NC(=O)[C@H](NC(=O)c2ncco2)C(C)C)CSSC[C@@H](C(=O)N[C@@H](Cc2cccnc2)C(N)=O)NC(=O)[C@H](Cc2cccc(C(N)=O)c2)NC(=O)[C@@H]2C=CCN2C(=O)CNC(=O)[C@H](C(C)C)NC(=O)[C@H](CC(=O)O)NC1=O [Compound 65, Oxazole-2-carbonyl-D-Val-Phe(2-Cbm)-c(Cys-Orn(iPr)-Asp-Val-Gly-Dhp-Phe(3-Cbm)-Cys)-3Pal-NH2] (Oxazole2carbonyl-[dV][Phe(2-CONH2)]C[Orn(iPr)]DVG[ΔPro][Phe(3-CONH2)]C[3Pal]-NH2; disulfide 3-10)	101	10.22	100	6.50	5492	–	–	–	–
CNC(=N)NCCC[C@@H]1NC(=O)[C@@H](NC(=O)[C@H](Cc2ccc(O)cc2)NC(=O)[C@H](NC(=O)c2ccccn2)C(C)C)CSSC[C@@H](C(=O)N[C@@H](Cc2cccnc2)C(N)=O)NC(=O)[C@H](Cc2ccccc2)NC(=O)[C@@H]2CCCN2C(=O)CNC(=O)[C@H](C(C)C)NC(=O)[C@H](CC(=O)O)NC1=O [Compound 28, Picolinoyl-D-Val-Tyr-c(Cys-Arg(Me)-Asp-Val-Gly-Pro-Phe-Cys)-3Pal-NH2] (Picolinoyl-[dV]YC[Arg(Me)]DVGPFC[3Pal]-NH2; disulfide 3-10)	100	–	99	–	–	–	–	–	–
CC(C)[C@@H]1NC(=O)[C@H](CC(=O)O)NC(=O)[C@H](CN)NC(=O)[C@@H](NC(=O)[C@H](Cc2ccc(O)cc2)NC(=O)[C@H](NC(=O)c2ccccc2)C(C)C)CSSC[C@@H](C(=O)N[C@@H](Cc2cccnc2)C(N)=O)NC(=O)[C@H](Cc2ccccc2)NC(=O)[C@@H]2CCCN2C(=O)CNC1=O [Ref. Cpd. 2, Bz-D-Val-Tyr-c(Cys-Dpr-Asp-Val-Gly-Pro-Phe-Cys)-3Pal-NH2, reference compound] (Bz-[dV]YC[Dap]DVGPFC[3Pal]-NH2; disulfide 3-10)	–	–	–	–	387	9.28	100	6.70	100
CC(C)NCCCC[C@@H]1NC(=O)[C@@H](NC(=O)[C@H](Cc2ccccc2C(N)=O)NC(=O)[C@H](NC(=O)c2ncco2)C(C)C)CSSC[C@@H](C(=O)N[C@@H](Cc2cccnc2)C(N)=O)NC(=O)[C@H](Cc2cccnc2)NC(=O)[C@@H]2CCCN2C(=O)CNC(=O)[C@H](C(C)C)NC(=O)[C@H](CC(=O)O)NC1=O [Compound 41, Oxazole-2-carbonyl-D-Val-Phe(2-Cbm)-c(Cys-Lys(iPr)-Asp-Val-Gly-Pro-3Pal-Cys)-3Pal-NH2] (Oxazole2carbonyl-[dV][Phe(2-CONH2)]C[Lys(iPr)]DVGP[3Pal]C[3Pal]-NH2; disulfide 3-10)	100	9.89	97	5.99	8075	–	–	–	–
CC(C)NCCC[C@@H]1NC(=O)[C@@H](NC(=O)[C@H](Cc2ccccc2C(N)=O)NC(=O)[C@H](NC(=O)c2ncco2)C(C)C)CSSC[C@@H](C(=O)N[C@@H](Cc2cccnc2)C(N)=O)NC(=O)[C@H](Cc2ccc(O)cc2)NC(=O)[C@@H]2C=CCN2C(=O)CNC(=O)[C@H](C(C)C)NC(=O)[C@H](CC(=O)O)NC1=O [Compound 57, Oxazole-2-carbonyl-D-Val-Phe(2-Cbm)-c(Cys-Orn(iPr)-Asp-Val-Gly-Dhp-Tyr-Cys)-3Pal-NH2] (Oxazole2carbonyl-[dV][Phe(2-CONH2)]C[Orn(iPr)]DVG[ΔPro]YC[3Pal]-NH2; disulfide 3-10)	100	9.92	99	6.20	5225	–	–	–	–
Cc1cccnc1C(=O)N[C@@H](C(=O)N[C@@H](Cc1ccc(O)cc1)C(=O)N[C@H]1CSSC[C@@H](C(=O)N[C@@H](Cc2cccnc2)C(N)=O)NC(=O)[C@H](Cc2ccccc2)NC(=O)[C@@H]2CCCN2C(=O)CNC(=O)[C@H](C(C)C)NC(=O)[C@H](CC(=O)O)NC(=O)[C@H](CCCNC(=N)N)NC1=O)C(C)C [Compound 34] (X12-[dV]YCRDVGPFC[3Pal]-NH2; disulfide 3-10)	100	9.85	100	8.10	58	–	–	–	–
CC(C)[C@@H]1NC(=O)[C@H](CC(=O)O)NC(=O)[C@H](CCNC(N)=NC#N)NC(=O)[C@@H](NC(=O)[C@H](Cc2ccc(O)cc2)NC(=O)[C@H](NC(=O)c2ccc(F)cc2)C(C)C)CSSC[C@@H](C(=O)N[C@@H](Cc2cccnc2)C(N)=O)NC(=O)[C@H](Cc2ccccc2)NC(=O)[C@@H]2CCCN2C(=O)CNC1=O [Compound 19, Bz(4-F)-D-Val-Tyr-c(Cys-norArg(CN)-Asp-Val-Gly-Pro-Phe-Cys)-3Pal-NH2] ({Benzoyl(4-F)}-[dV]YC[X13]DVGPFC[3Pal]-NH2; disulfide 3-10)	100	–	100	–	–	–	–	–	–
CC(C)[C@@H]1NC(=O)[C@H](CC(=O)O)NC(=O)[C@H](CCCNC(=N)N)NC(=O)[C@@H](NC(=O)[C@H](Cc2ccc(O)cc2)NC(=O)[C@H](NC(=O)c2ccc(F)cc2)C(C)C)CSSC[C@@H](C(=O)N[C@@H](Cc2cccnc2)C(N)=O)NC(=O)[C@H](Cc2ccccc2)NC(=O)[C@@H]2CCCN2C(=O)CNC1=O [Compound 1] ({Benzoyl(4-F)}-[dV]YCRDVGPFC[3Pal]-NH2; disulfide 3-10)	100	9.85	101	7.28	362	–	–	–	–
CC(C)[C@@H]1NC(=O)[C@H](CC(=O)O)NC(=O)[C@H](CCCNc2nc(N)n[nH]2)NC(=O)[C@@H](NC(=O)[C@H](Cc2ccccc2C(N)=O)NC(=O)[C@H](NC(=O)c2ncco2)C(C)C)CSSC[C@@H](C(=O)N[C@@H](Cc2cccnc2)C(N)=O)NC(=O)[C@H](Cc2cccnc2)NC(=O)[C@@H]2CCCN2C(=O)CNC1=O [Compound 52, Oxazole-2-carbonyl-D-Val-Phe(2-Cbm)-c(Cys-Orn(Atz)-Asp-Val-Gly-Pro-3Pal-Cys)-3Pal-NH2] (Oxazole2carbonyl-[dV][Phe(2-CONH2)]C[Orn](Triazol3yl(1,2,4-5-NH2))DVGP[3Pal]C[3Pal]-NH2; disulfide 3-10)	100	–	97	–	–	–	–	–	–
CC(C)[C@@H]1NC(=O)[C@H](CC(=O)O)NC(=O)[C@H](CCCNC(=N)N)NC(=O)[C@@H](NC(=O)[C@H](Cc2ccc(O)cc2)NC(=O)[C@H](NC(=O)c2ccc(F)cc2)C(C)C)CSSC[C@@H](C(=O)N[C@@H](Cc2cccnc2)C(N)=O)NC(=O)[C@H](Cc2cccc(C#N)c2)NC(=O)[C@@H]2CCCN2C(=O)CNC1=O [Compound 21, Bz(4-F)-D-Val-Tyr-c(Cys-Arg-Asp-Val-Gly-Pro-Phe(3-CN)-Cys)-3Pal-NH2] ({Benzoyl(4-F)}-[dV]YCRDVGP[Phe(3-CN)]C[3Pal]-NH2; disulfide 3-10)	100	9.89	99	7.48	258	–	–	–	–
CC(C)NCC[C@@H]1NC(=O)[C@@H](NC(=O)[C@H](Cc2ccc(O)cc2)NC(=O)[C@H](NC(=O)c2ccccn2)C(C)C)CSSC[C@@H](C(=O)N[C@@H](Cc2cccnc2)C(N)=O)NC(=O)[C@H](Cc2ccccc2)NC(=O)[C@@H]2CCCN2C(=O)CNC(=O)[C@H](C(C)C)NC(=O)[C@H](CC(=O)O)NC1=O [Compound 9, Picolinoyl-D-Val-Tyr-c(Cys-Dab(iPr)-Asp-Val-Gly-Pro-Phe-Cys)-3Pal-NH2] (Picolinoyl-[dV]YC[Dab(iPr)]DVGPFC[3Pal]-NH2; disulfide 3-10)	100	9.82	106	7.29	351	–	–	–	–
